According to ChEMBL document CHEMBL6092191, “Advancing Cancer Immunotherapy through Engineering New PD-L1 Degraders: A Comprehensive Study from Small Molecules to PD-L1-Specific Peptide-Drug Conjugates” (J Med Chem, 2024):
Blank lines part the entries; values can stand above or below the compound they belong to. Active and inactive are the calls of the source. The rule behind the calls is not given here.

Tests used:
[1] = Toxicity in C57BL/6 mouse model xenografted with […] cells assessed as obvious damage in spleen at 10 mg/kg, ip administered daily for 10 days by H and E staining based analysis; assay type: organism-based; details: in vivo, 240 h, time 10 day
[2] = tested on: Lewis lung carcinoma cell line; assay: Antitumor T-cell immune response in Lewis lung carcinoma cells xenografted in C57BL/6 mouse model assessed as increase in ratio of CD8+ to CD4+ T cells in tumor at 10 mg/kg, ip administered daily for 10 days by flow cytometry; assay type: functional, organism-based; details: time 10.0 day
[3] = Toxicity in C57BL/6 mouse model xenografted with […] cells assessed as change in AST level at 10 mg/kg, ip administered daily for 10 days; assay type: organism-based, Blood; details: in vivo, 240 h, time 10 day
[4] = Drug uptake in human PC-9 cells at 10 uM by fluorescence microscopy; assay type: ADME, cell-based; details: pc-9, 10 µM
[5] = Toxicity in C57BL/6 mouse model xenografted with […] cells assessed as change in ALT level at 10 mg/kg, ip administered daily for 10 days; assay type: organism-based, Blood; details: in vivo, 240 h, time 10 day
[6] = tested on: Lewis lung carcinoma cell line; assay: Antitumor T-cell immune response in Lewis lung carcinoma cells xenografted in C57BL/6 mouse model assessed as decrease in CD3+ CD4+ population in CD45+ T cells in tumor at 10 mg/kg, ip administered daily for 10 days by flow cytometry; assay type: functional, organism-based; details: time 10.0 day
[7] = Toxicity in C57BL/6 mouse model xenografted with […] cells assessed as obvious damage in heart at 10 mg/kg, ip administered daily for 10 days by H and E staining based analysis; assay type: organism-based; details: in vivo, 240 h, time 10 day
[8] = tested on: Lewis lung carcinoma cell line; assay: Antitumor T-cell immune response in Lewis lung carcinoma cells xenografted in C57BL/6 mouse model assessed as increase in IFN-gamma level in tumor at 10 mg/kg, ip administered daily for 10 days by ELISA; assay type: functional, organism-based; details: time 10.0 day
[9] = Toxicity in C57BL/6 mouse model xenografted with […] cells assessed as obvious damage in kidney at 10 mg/kg, ip administered daily for 10 days by H and E staining based analysis; assay type: organism-based; details: in vivo, 240 h, time 10 day
[10] = Toxicity in C57BL/6 mouse model xenografted with […] cells assessed as obvious damage in liver at 10 mg/kg, ip administered daily for 10 days by H and E staining based analysis; assay type: organism-based; details: in vivo, 240 h, time 10 day
[11] = Toxicity in C57BL/6 mouse model xenografted with […] cells assessed as change in serum creatinine level at 10 mg/kg, ip administered daily for 10 days; assay type: organism-based; details: in vivo, 240 h, time 10 day
[12] = tested on: Lewis lung carcinoma cell line; assay: Antitumor T-cell immune response in Lewis lung carcinoma cells xenografted in C57BL/6 mouse model assessed as increase in GrB level in tumor at 10 mg/kg, ip administered daily for 10 days by ELISA; assay type: functional, organism-based; details: time 10.0 day
[13] = Toxicity in C57BL/6 mouse model xenografted with […] cells assessed as obvious damage in lung at 10 mg/kg, ip administered daily for 10 days by H and E staining based analysis; assay type: organism-based; details: in vivo, 240 h, time 10 day
[14] = tested on: Lewis lung carcinoma cell line; assay: Anticancer activity against Lewis lung carcinoma cells xenografted in C57BL/6 mouse model assessed as tumor growth inhibition at 10 mg/kg, ip administered daily for 10 days; assay type: functional, organism-based; details: time 10.0 day
[15] = target: COP9 signalosome complex subunit 5 (Homo sapiens) (UniProt Q92905); assay: Induction of PD-L1 degradation in human NCI-H460 cells at 10 uM incubated for 24 hrs by Western blot analysis; assay type: cell-based
Sequence of COP9 signalosome complex subunit 5 (Homo sapiens) (Q92905 2-334 limits assumed, one chain of several): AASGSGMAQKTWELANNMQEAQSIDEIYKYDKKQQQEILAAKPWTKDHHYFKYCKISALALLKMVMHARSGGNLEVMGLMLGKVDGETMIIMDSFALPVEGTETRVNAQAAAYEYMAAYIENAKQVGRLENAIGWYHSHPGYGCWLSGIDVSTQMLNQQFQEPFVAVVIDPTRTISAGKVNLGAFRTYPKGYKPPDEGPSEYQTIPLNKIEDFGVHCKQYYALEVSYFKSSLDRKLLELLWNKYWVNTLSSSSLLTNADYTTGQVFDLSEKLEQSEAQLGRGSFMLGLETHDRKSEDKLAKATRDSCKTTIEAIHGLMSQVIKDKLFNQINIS

[16] = Toxicity in C57BL/6 mouse model xenografted with […] cells assessed as change in BUN level at 10 mg/kg, ip administered daily for 10 days; assay type: organism-based, Blood; details: in vivo, 240 h, time 10 day
[17] = Toxicity in C57BL/6 mouse model xenografted with […] cells assessed as body weight loss at 10 mg/kg, ip administered daily for 10 days; assay type: organism-based; details: in vivo, 240 h, time 10 day
[18] = tested on: Lewis lung carcinoma cell line; assay: Antitumor T-cell immune response in Lewis lung carcinoma cells xenografted in C57BL/6 mouse model assessed as increase in TNF-alpha level in tumor at 10 mg/kg, ip administered daily for 10 days by ELISA; assay type: functional, organism-based; details: time 10.0 day
[19] = tested on: Lewis lung carcinoma cell line; assay: Anticancer activity against Lewis lung carcinoma cells xenografted in C57BL/6 mouse model at 10 mg/kg, ip administered daily for 10 days relative to control; assay type: functional; details: 240 h, time 10 day, read-out: TGI
[20] = tested on: Lewis lung carcinoma cell line; assay: Antitumor T-cell immune response in Lewis lung carcinoma cells xenografted in C57BL/6 mouse model assessed as increase in CD3+ CD8+ infiltration in CD45+ T cells in tumor at 10 mg/kg, ip administered daily for 10 days by flow cytometry; assay type: functional, organism-based; details: time 10.0 day
[21] = target: COP9 signalosome complex subunit 5 (Homo sapiens) (UniProt Q92905); assay: Induction of PD-L1 degradation in human NCI-H460 cells at 10 uM incubated for 2 days by Western blot analysis; assay type: cell-based; details: time 2.0 day
[22] = Antiproliferative activity against human HTori-3 cells at 10 uM incubated for 4 days; assay type: toxicity, cell-based; details: htori-3, 96 h, time 4 day
3T3-L1 = assay: Antiproliferative activity against mouse 3T3-L1 cells at 10 uM incubated for 4 days; assay type: toxicity, cell-based; details: 3t3-l1, 96 h, time 4 day
HEK-293T = assay: Antiproliferative activity against HEK293T cells at 10 uM incubated for 4 days; assay type: toxicity, cell-based; details: human, 96 h, time 4 day
Mus musculus = assay: Biodistribution in C57BL/6 mouse model bearing […] lung carcinoma cells assessed as increase in fluorescence signal in tumor at 2 mg/kg, iv measured 4 hrs post-injection by IVIS analysis; assay type: ADME, organism-based; details: in vivo
[23] = target: COP9 signalosome complex subunit 5 (Homo sapiens) (UniProt Q92905); assay: Induction of PD-L1 degradation in human NCI-H460 cells at 10 uM by Western blot analysis; assay type: cell-based; details: time <= 36.0 hrs
[24] = tested on: Lewis lung carcinoma cell line; assay: Antitumor T-cell immune response in Lewis lung carcinoma cells xenografted in C57BL/6 mouse model assessed as increase in ratio of CD8+ to CD4+ T cells in tumor at 24.5 mg/kg, ip administered daily for 8 days by flow cytometry; assay type: functional, organism-based; details: time 8.0 day
[25] = tested on: Lewis lung carcinoma cell line; assay: Antitumor activity against Lewis lung carcinoma cells xenografted in C57BL/6 mouse model at 24.5 mg/kg, ip administered daily for 8 days relative to control; assay type: functional; details: 192 h, time 8 day, read-out: TGI

- Drug uptake [4]: Time-dependent-effect
- Activity [15]: Active
Compound: COc1cc2c(cc1OC)-c1cc3ccc(OC)c(OCCCN)c3c[n+]1CC2.[Cl-]
- Activity [1]: Non-toxic
- Activity [2]: Active
- Activity [3]: Non-toxic
- Activity [5]: Non-toxic
- Activity [6]: Active
- Activity [7]: Non-toxic
- Activity [8]: Active
- Activity [9]: Non-toxic
- Activity [10]: Non-toxic
- Activity [11]: Non-toxic
- Activity [12]: Active
- Activity [13]: Non-toxic
- Activity [14]: Active
- Activity [16]: Non-toxic
- Activity [17]: Non-toxic
- Activity [18]: Active
- inhibition in vivo at 10 mg/kg [19]: 65%
- Activity [20]: Active

- Drug uptake [4]: Time-dependent-effect
- Activity [15]: Active
Compound: COc1ccc2cc3[n+](cc2c1OCCOCCOCCN)CCc1cc2c(cc1-3)OCO2.[Cl-]

- Drug uptake [4]: Time-dependent-effect
- Activity [15]: inactive
Compound: COc1ccc2cc3[n+](cc2c1OCCN)CCc1cc2c(cc1-3)OCO2.[Cl-]

Compound: COc1cc2c(cc1OC)-c1cc3ccc(OC)c(OCCNC(=O)OCc4ccc(SSC[C@H](N)C(=O)NCCCCCC(=O)N[C@@H](CC(N)=O)C(=O)N[C@@H](Cc5ccc(O)cc5)C(=O)N[C@@H](CO)C(=O)N[C@@H](CCCCN)C(=O)N5CCC[C@H]5C(=O)N[C@H](C(=O)N[C@@H](CC(=O)O)C(=O)N[C@@H](CCCNC(=N)N)C(=O)N[C@@H](CCC(N)=O)C(=O)N[C@@H](Cc5ccc(O)cc5)C(=O)N[C@@H](Cc5cnc[nH]5)C(=O)N[C@@H](Cc5ccccc5)C(=O)O)[C@@H](C)O)cc4)c3c[n+]1CC2.[Cl-]
- Activity [21]: Active
- Activity [22]: Toxic
- Activity (3T3-L1): Toxic
- Activity (HEK-293T): Toxic

- Drug uptake (Mus musculus): Active
Compound: CCN1/C(=C/C=C/C=C/C2=[N+](CCCCCC(=O)NCCN3C(=O)CC(SC[C@H](N)C(=O)NCCCCCC(=O)N[C@@H](CC(N)=O)C(=O)N[C@@H](Cc4ccc(O)cc4)C(=O)N[C@@H](CO)C(=O)N[C@@H](CCCCN)C(=O)N4CCC[C@H]4C(=O)N[C@H](C(=O)N[C@@H](CC(=O)O)C(=O)N[C@@H](CCCNC(=N)N)C(=O)N[C@@H](CCC(N)=O)C(=O)N[C@@H](Cc4ccc(O)cc4)C(=O)N[C@@H](Cc4cnc[nH]4)C(=O)N[C@@H](Cc4ccccc4)C(=O)O)[C@@H](C)O)C3=O)c3ccc(S(=O)(=O)O)cc3C2(C)C)C(C)(C)c2cc(S(=O)(=O)O)ccc21 (stereo partly drawn)

- Drug uptake [4]: Time-dependent-effect
- Activity [15]: Active
Compound: COc1ccc2cc3[n+](cc2c1OCCCCCN)CCc1cc2c(cc1-3)OCO2.[Cl-]

- Drug uptake [4]: Time-dependent-effect
- Activity [15]: Active
Compound: COc1cc2c(cc1OC)-c1cc3ccc(OC)c(OCCCCCN)c3c[n+]1CC2.[Cl-]
- Activity [1]: Non-toxic
- Activity [2]: Active
- Activity [3]: Non-toxic
- Activity [5]: Non-toxic
- Activity [6]: Active
- Activity [7]: Non-toxic
- Activity [8]: Active
- Activity [9]: Non-toxic
- Activity [10]: Non-toxic
- Activity [11]: Non-toxic
- Activity [12]: Active
- Activity [13]: Non-toxic
- Activity [14]: Active
- Activity [16]: Non-toxic
- Activity [17]: Non-toxic
- Activity [18]: Active
- inhibition in vivo at 10 mg/kg [19]: 68%
- Activity [20]: Active

- Drug uptake [4]: Time-dependent-effect
- Activity [15]: Active
Compound: COc1ccc2cc3[n+](cc2c1OC)CCc1cc2c(cc1-3)OCO2.[Cl-] [BERBERINE CHLORIDE]

- Drug uptake [4]: Time-dependent-effect
- Activity [15]: Active
Compound: COc1cc2c(cc1OC)-c1cc3ccc(OC)c(OCCOCCOCCN)c3c[n+]1CC2.[Cl-]

- Activity [23]: Active
Compound: COc1cc2c(cc1OC)-c1cc3ccc(OC)c(OCCNC(=O)CCCC[C@@H]4SC[C@@H]5NC(=O)N[C@@H]54)c3c[n+]1CC2

- Drug uptake [4]: Time-dependent-effect
- Activity [15]: Active
Compound: COc1ccc2cc3[n+](cc2c1OCCCN)CCc1cc2c(cc1-3)OCO2.[Cl-]

- Drug uptake [4]: Time-dependent-effect
- Activity [15]: Active
Compound: COc1cc2c(cc1OC)-c1cc3ccc(OC)c(OC)c3c[n+]1CC2.[Cl-] [PALMATINE CHLORIDE]
- Activity [1]: Non-toxic
- Activity [2]: Active
- Activity [3]: Non-toxic
- Activity [5]: Non-toxic
- Activity [6]: Active
- Activity [7]: Non-toxic
- Activity [8]: Active
- Activity [9]: Non-toxic
- Activity [10]: Non-toxic
- Activity [11]: Non-toxic
- Activity [12]: Active
- Activity [13]: Non-toxic
- Activity [14]: Active; Highest Efficacy Of Tumor Growth Suppression Among Pmt Derivatives
- Activity [16]: Non-toxic
- Activity [17]: Non-toxic
- Activity [18]: Active
- Activity [20]: Active

- Activity [21]: inactive
Compound: C[C@@H](O)[C@H](NC(=O)[C@@H]1CCCN1C(=O)[C@H](CCCCN)NC(=O)[C@H](CO)NC(=O)[C@H](Cc1ccc(O)cc1)NC(=O)[C@H](CC(N)=O)NC(=O)CCCCCNC(=O)[C@@H](N)CS)C(=O)N[C@@H](CC(=O)O)C(=O)N[C@@H](CCCNC(=N)N)C(=O)N[C@@H](CCC(N)=O)C(=O)N[C@@H](Cc1ccc(O)cc1)C(=O)N[C@@H](Cc1cnc[nH]1)C(=O)N[C@@H](Cc1ccccc1)C(=O)O
- Activity [24]: Active
- inhibition in vivo at 24.5 mg/kg [25]: 37%
- Activity [22]: Non-toxic
- Activity (3T3-L1): Non-toxic
- Activity (HEK-293T): Non-toxic
